Test results published in paper PMC6886721 (Journal of medicinal chemistry, 2019).
Where a SMILES comes first, the peptide text is derived from it. [ ]: non-standard residue; d: D form. Dab = NCC[C@H](N)C(=O)O; Dap = NC[C@H](N)C(=O)O

Columns and labels:
[1] = RP-HPLC temperature profiling, self-association; assay type: physicochemical; conditions: temperature at which maximum retention time is observed over 5–77 °C, Zorbax 300 SB-C8, 0.5% acetonitrile/min, 0.30 mL/min, TFA pH 2
[2] = Circular dichroism, helical structure; assay type: physicochemical; conditions: for [θ]222, aqueous pH 7 / [θ]222, 50% TFE: CD, 222 nm; for [θ]222, aqueous pH 7 / [θ]222, 50% TFE / % helix, aqueous pH 7: 25 °C; for [θ]222, aqueous pH 7: 100 mM KCl, 50 mM Na2HPO4/NaH2PO4, pH 7.0; for [θ]222, 50% TFE: pH 7.0 buffer containing 50% TFE; for % helix induced: increase in molar ellipticity (as a percentage) in the presence of 50% TFE; for % helix, aqueous pH 7: relative to the molar ellipticity of the peptide in 50% TFE
human red blood cells = test: Hemolytic activity; assay type: cell-based; conditions: for HC50: pH 7.4

CC(=O)N[C@H](CCCCN)C(=O)N[C@H](CC(C)C)C(=O)N[C@@H](CCN)C(=O)N[C@H](CO)C(=O)N[C@H](CC(C)C)C(=O)N[C@H](CC(C)C)C(=O)N[C@@H](CCN)C(=O)N[C@@H](C(=O)N[C@H](CC(C)C)C(=O)N[C@H](CO)C(=O)N[C@@H](CCN)C(=O)N[C@H](C)C(=O)N[C@H](C)C(=O)N[C@H](C)C(=O)N[C@H](C)C(=O)N[C@H](C)C(=O)N[C@H](CC(C)C)C(=O)N[C@@H](CCN)C(=O)N[C@@H](C(=O)N[C@H](CC(C)C)C(=O)N[C@H](CC(C)C)C(=O)N[C@@H](CCN)C(=O)N[C@H](C)C(=O)N[C@H](CC(C)C)C(=O)N[C@H](CO)C(=O)N[C@@H](CCN)C(N)=O)[C@H](C)O)[C@H](C)O [D86(K13A/K16A)-(Lys^1-6 Dab-1)] (Ac-[dK][dL][Dab][dS][dL][dL][Dab][dT][dL][dS][Dab][dA][dA][dA][dA][dA][dL][Dab][dT][dL][dL][Dab][dA][dL][dS][Dab]-NH2)
Tp [1]: 31.0 °C
[θ]222, aqueous pH 7 [2]: 2308 mdeg cm^2/(dmol × res)
[θ]222, 50% TFE [2]: 18731 mdeg cm^2/(dmol × res)
% helix induced [2]: 88%
% helix, aqueous pH 7 [2]: 12%

CC(=O)N[C@H](CCCCN)C(=O)N[C@H](CC(C)C)C(=O)N[C@@H](CCN)C(=O)N[C@H](CO)C(=O)N[C@H](CC(C)C)C(=O)N[C@H](CC(C)C)C(=O)N[C@@H](CCN)C(=O)N[C@@H](C(=O)N[C@H](CC(C)C)C(=O)N[C@H](CO)C(=O)N[C@@H](CCN)C(=O)N[C@H](C)C(=O)N[C@H](CCCCN)C(=O)N[C@H](C)C(=O)N[C@H](C)C(=O)N[C@H](CCCCN)C(=O)N[C@H](CC(C)C)C(=O)N[C@@H](CCN)C(=O)N[C@@H](C(=O)N[C@H](CC(C)C)C(=O)N[C@H](CC(C)C)C(=O)N[C@@H](CCN)C(=O)N[C@H](C)C(=O)N[C@H](CC(C)C)C(=O)N[C@H](CO)C(=O)N[C@@H](CCN)C(N)=O)[C@H](C)O)[C@H](C)O [D86(Lys^1-6 Dab-1)] (Ac-[dK][dL][Dab][dS][dL][dL][Dab][dT][dL][dS][Dab][dA][dK][dA][dA][dK][dL][Dab][dT][dL][dL][Dab][dA][dL][dS][Dab]-NH2)
Tp [1]: 5.0 °C
[θ]222, aqueous pH 7 [2]: 1769 mdeg cm^2/(dmol × res)
[θ]222, 50% TFE [2]: 27923 mdeg cm^2/(dmol × res)
% helix induced [2]: 94%
% helix, aqueous pH 7 [2]: 6%
HC50 fold improvement (human red blood cells): >186
HC50 (human red blood cells): >2000 µg/mL

CC(=O)N[C@H](CCCCN)C(=O)N[C@H](CC(C)C)C(=O)N[C@@H](CCN)C(=O)N[C@H](CO)C(=O)N[C@H](CC(C)C)C(=O)N[C@H](CC(C)C)C(=O)N[C@@H](CCN)C(=O)N[C@@H](C(=O)N[C@H](CC(C)C)C(=O)N[C@H](CO)C(=O)N[C@@H](CCN)C(=O)N[C@H](C)C(=O)N[C@H](CCCCN)C(=O)N[C@H](C)C(=O)N[C@H](C)C(=O)N[C@H](CCCCN)C(=O)N[C@H](CC(C)C)C(=O)N[C@@H](CCN)C(=O)N[C@@H](C(=O)N[C@H](CC(C)C)C(=O)N[C@H](CC(C)C)C(=O)N[C@@H](CCN)C(=O)N[C@H](C)C(=O)N[C@H](CC(C)C)C(=O)N[C@H](CO)C(=O)N[C@H](CO)C(N)=O)[C@H](C)O)[C@H](C)O [D102(Lys^1Ser^26-5 Dab-1)] (Ac-[dK][dL][Dab][dS][dL][dL][Dab][dT][dL][dS][Dab][dA][dK][dA][dA][dK][dL][Dab][dT][dL][dL][Dab][dA][dL][dS][dS]-NH2)
HC50 fold improvement (human red blood cells): >177
HC50 (human red blood cells): >2000 µg/mL

CC(=O)N[C@H](CCCCN)C(=O)N[C@H](CC(C)C)C(=O)N[C@@H](CN)C(=O)N[C@H](CO)C(=O)N[C@H](CC(C)C)C(=O)N[C@H](CC(C)C)C(=O)N[C@@H](CN)C(=O)N[C@@H](C(=O)N[C@H](CC(C)C)C(=O)N[C@H](CO)C(=O)N[C@@H](CN)C(=O)N[C@H](C)C(=O)N[C@H](C)C(=O)N[C@H](C)C(=O)N[C@H](C)C(=O)N[C@H](C)C(=O)N[C@H](CC(C)C)C(=O)N[C@@H](CN)C(=O)N[C@@H](C(=O)N[C@H](CC(C)C)C(=O)N[C@H](CC(C)C)C(=O)N[C@@H](CN)C(=O)N[C@H](C)C(=O)N[C@H](CC(C)C)C(=O)N[C@H](CO)C(=O)N[C@@H](CN)C(N)=O)[C@H](C)O)[C@H](C)O [D105(K13A/K16A)-(Lys^1-6 Dap-1)] (Ac-[dK][dL][Dap][dS][dL][dL][Dap][dT][dL][dS][Dap][dA][dA][dA][dA][dA][dL][Dap][dT][dL][dL][Dap][dA][dL][dS][Dap]-NH2)
Tp [1]: 39.0 °C
[θ]222, aqueous pH 7 [2]: 9577 mdeg cm^2/(dmol × res)
[θ]222, 50% TFE [2]: 18038 mdeg cm^2/(dmol × res)
% helix induced [2]: 47%
% helix, aqueous pH 7 [2]: 53%

CC(=O)N[C@H](CCCCN)C(=O)N[C@H](CC(C)C)C(=O)N[C@@H](CN)C(=O)N[C@H](CO)C(=O)N[C@H](CC(C)C)C(=O)N[C@H](CC(C)C)C(=O)N[C@@H](CN)C(=O)N[C@@H](C(=O)N[C@H](CC(C)C)C(=O)N[C@H](CO)C(=O)N[C@@H](CN)C(=O)N[C@H](C)C(=O)N[C@H](CCCCN)C(=O)N[C@H](C)C(=O)N[C@H](C)C(=O)N[C@H](CCCCN)C(=O)N[C@H](CC(C)C)C(=O)N[C@@H](CN)C(=O)N[C@@H](C(=O)N[C@H](CC(C)C)C(=O)N[C@H](CC(C)C)C(=O)N[C@@H](CN)C(=O)N[C@H](C)C(=O)N[C@H](CC(C)C)C(=O)N[C@H](CO)C(=O)N[C@@H](CN)C(N)=O)[C@H](C)O)[C@H](C)O [D105(Lys^1-6 Dap-1)] (Ac-[dK][dL][Dap][dS][dL][dL][Dap][dT][dL][dS][Dap][dA][dK][dA][dA][dK][dL][Dap][dT][dL][dL][Dap][dA][dL][dS][Dap]-NH2)
Tp [1]: 16.9 °C
[θ]222, aqueous pH 7 [2]: 5961 mdeg cm^2/(dmol × res)
[θ]222, 50% TFE [2]: 24192 mdeg cm^2/(dmol × res)
% helix induced [2]: 75%
% helix, aqueous pH 7 [2]: 25%
HC50 fold improvement (human red blood cells): >287
HC50 (human red blood cells): >3000 µg/mL
